The values below come from patent publication US5501976A, “Methods and compositions for the control of the flesh fly” (The University of Florida, priority 1995, dated 1996).

Experiment [1] deals with trypsin biosynthesis in the midgut of female Neobellieria bullata. Description: Effect of injected peptide on trypsin biosynthesis in the gut ([3H]DFP assay). The format is in vivo.
A further experiment deals with trypsin-like enzymes. Description: Gut supernatant incubated with Neb-TMOF: conversion of [3H]DFP to [3H]DIP-trypsin derivatives. The format is biochemical, Neobellieria. The conditions noted are these: gut supernatant incubated 18 hours at 4° C. with Neb-TMOF (FIG. 6).
The subject of experiment [2] is vitellogenin biosynthesis. Description: Vitellogenin in hemolymph of injected females (SDS-PAGE). The format is in vivo, Neobellieria. As to the method: Electrophoresis and fluorography. ^3 H!DIP-trypsin-like derivatives of 0.04 gut equivalent and 20 μl sample buffer were run by electrophoresis on 12.5% polyacrylamide gel for 1 hour at 20 mA and for 3 hours at 30 mA (Biorad protean 32 CM) (Laemmli, 1970; Borovsky and Schlein, 1988). Gels were stained for 20 minutes with Coomassie Brilliant Blue R250 and destained overnight with methanol/H2 O/acetic acid (40/50/10), and washed 2 times for 30 minutes in 100 ml dimethylsulfoxide (DMSO). Gels were then incubated for 2 h in 200 ml DMSO containing 44 g 2,5-diphenyloxazole (PPO) (Janssen Chimica, Belgium), rinsed with distilled water for 1 hour, dried for 2 hours in a Biorad slab gel dryer at 80° C. and exposed to a Hyperfilm-MP (Amersham) for 2 days at -70° C. Vitellogenin was separated on a 5-15% SDS gradient gel (Huybrechts and De Loof 1977).
Four-day-old females were injected with synthetic Neb-TMOF at final concentration of 10^-9 M. Twenty-four hours later, hemolymph was collected and subjected to PAGE. […] The three yolk polypeptides of vitellogenin were affected (FIG. 7). The decrease in vitellogenin in the hemolymph is probably due to the inhibition of trypsin biosynthesis and decrease in protein digestion in the gut. The Neb-TMOF can also affect the fat body, which is the major site of yolk polypeptide biosynthesis in Neobellieria.

For experiment [3], the system named is ecdysone biosynthesis by ring glands. Description: In vitro ecdysone biosynthesis by larval ring glands. The format is cell-based, Calliphora and Neobellieria.
The subject of another experiment is ecdysteroid titer. The experiment in a line: In vivo ecdysteroid titer in larvae. The conditions noted are these: ten picomole per larva, within 18 hours.

pEC50: −log10 of the molar value. Where “and” joins values, the source holds several entries; their conditions need not be identical. Identical values can stand only once. Like-named read-outs stand apart in the source and are kept apart here. Where no end group is shown, it is not given here.

As to `CSCC[C@H](NC(=O)[C@H](Cc1ccccc1)NC(=O)CNC(=O)CNC(=O)[C@@H](N)Cc1ccc(O)cc1)C(=O)O` [methionine-enkephalin, H-YGGFM-OH, reference compound], in experiment [1] (injected with 10^-7 M, control group), the “effect on trypsin-like activity” value is listed as “without an effect”.
Consider “NPTNLH [Neb-TMOF, NH2 -Asn-Pro-Thr-Asn-Leu-His-COOH]”, for which the “inhibition of trypsin biosynthesis” value in experiment [1] (10^-8 M, injected 4-day-old females) was 35%; in experiment [1] (10^-9 M, injected females), 60% and 50%; in experiment [1] (10^-11 M) it was “No inhibition”; in experiment [1] (column purification step 1, 1.25 ovary equivalents, P<0.05) it was 44%; in experiment [1] (column purification step 2, 3.7 ovary equivalents, P<0.05), 38%; in experiment [1] (column purification step 3, 10 ovary equivalents, P<0.05), 43%. The “inhibition of trypsin biosynthesis” value in experiment [1] (column purification step 4, 10 ovary equivalents, P<0.05) was determined as 44%; in experiment [1] (column purification step 5, 38.5 ovary equivalents, P<0.05), 20%. In experiment [1] (10^-9 M injected, liver meal, guts removed 6 h later (FIG. 6)), the “reduction in trypsin-like enzymes as compared with controls” value came to 51%. For the same molecule, the “inhibition of trypsin biosynthesis in the gut, significance (FIG. 5)” value in experiment [1] (in vivo, 10^-8 M and 10^-9 M, P<0.05) was “Significant inhibition”. Further, the “effective dose of 50% inhibition (ED50) of trypsin biosynthesis” value in experiment [1] (physiological concentrations) was 10^-9 M. The “activity in Neobellieria relative to mosquito TMOF” value in experiment [1] (versus mosquito TMOF) is listed as “six fold more active”. For the same molecule, the “reduction in [3H]DIP-trypsin derivatives compared with controls” value in the experiment with trypsin-like enzymes is “No reduction”. The “vitellogenin level in hemolymph compared with non-injected controls” value in experiment [2] (10^-9 M injected, 24 hours later, PAGE) is reported as “low level of vitellogenin”. The “egg yolk synthesis after injection” value in experiment [2] (injection of the hormone) is reported as “inhibited egg yolk synthesis”. The “PTIH effect, onset and reversibility” value in experiment [3] is “immediate and reversible”. The ecdysone biosynthesis inhibited result in experiment [3] (10^-7 M) is given as “More than 98%”. Further, the pEC50 in experiment [3] (ring glands of Neobellieria and Calliphora, read-out: EC50 of the biosynthesis of ecdysone by ring glands) is 8.30; in experiment [3] (ring glands of larvae of Calliphora and Neobellieria, read-out: EC50 of in vitro ecdysone biosynthesis by ring glands), 8.30. Further, in the experiment on ecdysteroid titer, the “reduction of ecdysteroid titer in vivo” value is on record as “up to a factor of four”.

As a reminder, the pEC50 is −log10 of the EC50, conventionally taken in molar units.
